In patent publication US8697747B2, “Enhancing coagulation or reducing fibrinolysis” (THe UAB Research Foundation, priority 2009, dated 2014):

Tested on: plasma from donors treated with warfarin
Test: Thrombelastography/CLSM in plasma of warfarin-treated donors with or without tPA
Type: biochemical, human
Details: warfarin-treated subjects, tPA 100 IU/mL; 100 μM CORM-2
Protocol: Pooled normal plasma (George King Bio-Medical, Overland Park, Kans.) anticoagulated with sodium citrate was utilized for experimentation. […] Plasma anticoagulated with sodium citrate procured from anonymous donors treated with warfarin was also obtained from the same vendor.
Plasma sample composition of experiments without tPA addition. The final volume for all subsequently described plasma sample mixtures was 359.6 μL. Sample composition consisted of 326 μL of plasma, 10 μL of tissue factor reagent (0.1% final concentration in dH2O; Instrumentation Laboratory, Lexington, Mass.), 3.6 μL of dimethyl sulfoxide (DMSO) or DMSO with CORM-2 (100 μM final concentration; Sigma-Aldrich, St. Louis, Mo.), and 20 μL of 200 mM CaCl2. Tissue factor stock was kept on ice prior to use and was remade every two hours. […] DMSO was added to dry CORM-2 just prior to placement into the plasma mixture. Six replicate experiments were performed with pooled normal plasma with or without CORM-2 added, whereas plasma obtained from subjects treated with warfarin underwent singlicate experiments with or without CORM-2 exposure.
Plasma sample composition of experiments with tPA addition. […]
Clot Lifespan Model Analyses. […] Time to maximum rate of lysis (TMRL): This is the time interval (sec) measured from the time of maximum strength to the time when the velocity of clot disintegration is maximal. […]

## [C-]#[O+].[C-]#[O+].[C-]#[O+].[C-]#[O+].[C-]#[O+].[C-]#[O+].[Cl][Ru][Cl].[Cl][Ru][Cl] [CORM-2, tricarbonyldichlororuthenium (II) dimer]
  effect on clot lifespan: The clot lifespan was increased in all subjects
  increase in MRL, % of baseline values: 11-181%
